The compounds below were run against T1, recombinant human KLK5 (Homo sapiens, UniProt Q9Y337) (assay: Kallikrein (KLK) 5 enzymatic assay (Boc-VPR-AMC fluorogenic substrate)). Settings: recombinant human KLK5 0.1 μg/well, Boc-VPR-AMC 100 μM, pH 7.5, room temperature, 1% DMSO; tested a minimum of three times.
T1 construct: purchased Novoprotein or R&D Systems C415 or 1108-SE
T1 sequence (Q9Y337 23-293): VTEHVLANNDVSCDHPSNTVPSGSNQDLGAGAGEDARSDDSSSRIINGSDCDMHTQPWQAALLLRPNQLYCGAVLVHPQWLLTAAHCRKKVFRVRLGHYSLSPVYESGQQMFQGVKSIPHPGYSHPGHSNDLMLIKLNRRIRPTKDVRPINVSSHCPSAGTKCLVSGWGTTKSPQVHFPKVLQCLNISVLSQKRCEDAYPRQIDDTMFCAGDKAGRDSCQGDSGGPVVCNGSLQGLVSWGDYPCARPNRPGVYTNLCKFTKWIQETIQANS
Assay type: biochemical
Source text: Kallikrein-5 (KLK5) is a member of the serine protease family of proteolytic enzymes, confirmed to have trypsin-like activity (Michael I P, et al. Biochemical and enzymatic characterization of human kallikrein 5 (hK5), a novel serine protease potentially involved in cancer progression (J. Biol. Chem. 2005 Apr. 15; 280 (15): 14628-35). Boc-VPR-AMC is a fluorogenic peptide substrate composed of the short peptide chain, Valine-Proline-Arginine (VPR) and the fluorophore, 7-amino-4-methylcoumarin (AMC). KLK5 is able to cleave the fluorogenic peptide substrate Boc-VPR-AMC, releasing the AMC fluorophore, which causes a fluorescent emission in proportion with the enzymatic activity of KLK5. The KLK5 enzymatic activity is monitored by measuring fluorescent emission at wavelengths of 380 nm (excitation) and 460 nm (emission).
The IC50 value of compounds against KLK5 (i.e., the concentration of the compound that inhibits 50% of the enzymatic activity) was calculated according to the procedure reported by R&D systems (Recombinant human KLK5, Catalog Number: 1108-SE), with the exception the pH of the assay was modified from 8.0 to 7.5. Specifically, recombinant human KLK5 (Novoprotein Catalog #C415 or R&D systems Catalog #1108-SE) and fluorogenic peptide Boc-VPR-AMC substrate (R&D Catalog #ES011) were each separately diluted in assay buffer (0.1 M NaH2PO4 buffer, pH 7.5). The compounds of the disclosure were dissolved in DMSO at a concentration of 10 mM. A portion of this stock solution was added to the recombinant human KLK5 solution to provide a desired concentration of the compounds and the mixture was incubated at room temperature. The reaction was initiated by the addition of the fluorogenic peptide substrate at room temperature. The final concentration of recombinant human KLK5 was 0.1 μg/well and the final concentration of the fluorogenic substrate was 100 μM (final volume of 100 μL, 1% DMSO). The assays were performed in 96 well F16 Black Maxisorp Plate (Nunc Catalog #475515). Controls included assay buffer alone and enzyme solutions to which DMSO was added. The reaction rates were measured spectrophotometrically by excitation at 380 nm and emission at 460 nm on a Biotek Synergy H1 plate reader.
The reaction rate for enzyme alone was compared to the reaction rate of enzyme in the presence of compound and the percent inhibition was calculated as shown below:
Percent Inhibition=[Rate with inhibitor/Rate without inhibitor)]×100
An IC50 indicates a compound concentration that inhibits 50% of the enzymatic activity. Compounds were tested a minimum of three times.
`CC(C)n1nc(COc2ccccc2CC(=O)O)c2cc(-c3ccc(C(=N)N)c(O)c3)ccc21` [Compound 29c, 2-(2-((5-(4-carbamimidoyl-3-hydroxyphenyl)-1-isopropyl-1H-indazol-3-yl)methoxy)phenyl)acetic acid] was tested, and the IC50 was > 10 µM. For `COc1c(-c2ccc3nn(C4CCC4)c(COc4ccccc4CC(=O)O)c3c2)ccnc1C(=N)N` [Compound 24b, 2-(2-((5-(2-carbamimidoyl-3-methoxypyridin-4-yl)-2-cyclobutyl-2H-indazol-3-yl)methoxy)phenyl)acetic acid], the IC50 was < 1 µM. `CC(C)n1nc(COc2ccccc2CC(=O)O)c2cc(-c3ccc4c(N)cccc4c3)ccc21` [Compound 43d, 2-(2-((5-(5-aminonaphthalen-2-yl)-1-isopropyl-1H-indazol-3-yl)methoxy)phenyl)acetic acid] was tested, and the IC50 was > 10 µM. For `CCC(=O)N1CCC2(CC1)CC(Oc1ccccc1CC(=O)O)c1cc(-c3cccc4c(N)nccc34)ccc12` (single isomer, unassigned; (-)) [Compound 385e, (−)-2-(2-((5-(1-aminoisoquinolin-5-yl)-1′-propionyl-2,3-dihydrospiro[indene-1,4′-piperidin]-3-yl)oxy)phenyl)acetic acid], the IC50 was < 1 µM. `CCOC(=O)N1CC[C@@H](n2nc(COc3ccccc3CC(=O)O)c3cc(-c4cccc5c(N)nccc45)ccc32)C1` [Compound 340i, (R)-2-(2-((5-(1-aminoisoquinolin-5-yl)-1-(1-(ethoxycarbonyl)pyrrolidin-3-yl)-1H-indazol-3-yl)methoxy)phenyl)acetic acid] was tested, and the IC50 was < 1 µM. With `CC(C)(C)OC(=O)N1CCC2(CC1)C[C@H](Oc1ccccc1CC(=O)O)c1cc(-c3ccc4ccnc(N)c4c3)ccc12` [Compound 393b, (S)-2-(2-((5-(1-aminoisoquinolin-7-yl)-1′-(tert-butoxycarbonyl)-2,3-dihydrospiro[indene-1,4′-piperidin]-3-yl)oxy)phenyl)acetic acid] the IC50 was < 1 µM. For `Nc1nccc2ccc(-c3ccc4c(c3)c(COc3ccccc3CC(=O)O)nn4C3CCC3)cc12` [Compound 37c, 2-(2-((5-(1-aminoisoquinolin-7-yl)-1-cyclobutyl-1H-indazol-3-yl)methoxy)phenyl)acetic acid], the IC50 was < 1 µM. `Nc1nccc2c(-c3ccc4c(c3)c(COc3ccccc3CC(=O)O)nn4[C@H]3CCOC3)cccc12` [Compound 243h, (S)-2-(2-((5-(1-aminoisoquinolin-5-yl)-1-(tetrahydrofuran-3-yl)-1H-indazol-3-yl)methoxy)phenyl)acetic acid] was tested, and the IC50 was < 1 µM. For `CC(C)n1nc(COc2ccccc2CC(=O)O)c2cc(-c3ccc4ccc(N)nc4c3)ccc21` [Compound 50c, 2-(2-((5-(2-aminoquinolin-7-yl)-1-isopropyl-1H-indazol-3-yl)methoxy)phenyl)acetic acid], the IC50 was > 10 µM. `CC(C)n1nc(COc2ccccc2CC(=O)O)c2cc(-c3ccc4cnc(N)cc4c3)ccc21` [Compound 75c, 2-(2-((5-(3-aminoisoquinolin-6-yl)-1-isopropyl-1H-indazol-3-yl)methoxy)phenyl)acetic acid] was tested, and the IC50 was > 10 µM. In the case of `Nc1nccc2c(-c3ccc4c(c3)c(COc3cccc(OC(F)(F)F)c3CC(=O)O)nn4C3CCOC3)cccc12` (centres unmarked) [Compound 289b, 2-(2-((5-(1-aminoisoquinolin-5-yl)-1-(tetrahydrofuran-3-yl)-1H-indazol-3-yl)methoxy)-6-(trifluoromethoxy)phenyl)acetic acid], the IC50 is reported as < 1 µM. `Nc1nccc2c(-c3ccc4nn([C@H]5CCN(CCO)C5)c(COc5ccccc5CC(=O)O)c4c3)cccc12` [Compound 115b, (S)-2-(2-((5-(1-aminoisoquinolin-5-yl)-2-(1-(2-hydroxyethyl)pyrrolidin-3-yl)-2H-indazol-3-yl)methoxy)phenyl)acetic acid] was tested, and the IC50 was 1 to 10 µM. For `Cc1ccc(CC(=O)O)c(OCc2c3cc(-c4ccc5ccnc(N)c5c4)ccc3nn2C2CCC2)c1` [Compound 17e, 2-(2-((5-(1-aminoisoquinolin-7-yl)-2-cyclobutyl-2H-indazol-3-yl)methoxy)-4-methylphenyl)acetic acid], the IC50 was > 10 µM. For `CCCCn1nc(COc2ccccc2CC(=O)O)c2cc(-c3cccc4c(N)nccc34)ccc21` [Compound 185b, 2-(2-((5-(1-aminoisoquinolin-5-yl)-1-butyl-1H-indazol-3-yl)methoxy)phenyl)acetic acid], the IC50 was < 1 µM. For `Nc1nccc2c(-c3ccc4c(c3)c(COc3ccccc3CC(=O)O)nn4C3CCCOC3)cccc12` (centres unmarked) [Compound 284b, 2-(2-((5-(1-aminoisoquinolin-5-yl)-1-(tetrahydro-2H-pyran-3-yl)-1H-indazol-3-yl)methoxy)phenyl)acetic acid], the IC50 was < 1 µM. `CC(C)(C)OC(=O)NC1CC(n2nc3ccc(-c4ccc5ccnc(N)c5c4)cc3c2COc2ccccc2CC(=O)O)C1` (centres unmarked) [Compound 137b, 2-(2-((5-(1-aminoisoquinolin-7-yl)-2-(3-(tert-butoxycarbonylamino)cyclobutyl)-2H-indazol-3-yl)methoxy)phenyl)acetic acid] was tested, and the IC50 was 1 to 10 µM. `CCC(=O)N1CC(n2nc3ccc(-c4cccc5c(N)nccc45)cc3c2COc2ccccc2CC(=O)O)C1` [Compound 129b, 2-(2-((5-(1-aminoisoquinolin-5-yl)-2-(1-propionylazetidin-3-yl)-2H-indazol-3-yl)methoxy)phenyl)acetic acid] was tested, and the IC50 was 1 to 10 µM. In the case of `CCC(=O)N1CCC2(CC1)CC(Oc1cccc(C)c1CC(=O)O)c1cc(-c3ccc4ccnc(N)c4c3)ccc12` (centres unmarked) [Compound 388b, 2-(2-((5-(1-aminoisoquinolin-7-yl)-1′-propionyl-2,3-dihydrospiro[indene-1,4′-piperidin]-3-yl)oxy)-6-methylphenyl)acetic acid], the IC50 is reported as < 1 µM. For `Cc1cccc(OCc2nn(C3CCC(F)(F)C3)c3ccc(-c4cccc5c(N)nccc45)cc23)c1CC(=O)O` (centres unmarked) [Compound 276c, 2-(2-((5-(1-aminoisoquinolin-5-yl)-1-(3,3-difluorocyclopentyl)-1H-indazol-3-yl)methoxy)-6-methylphenyl)acetic acid], the IC50 was < 1 µM. For `CCS(=O)(=O)N1CCC(n2nc(COc3ccccc3CC(=O)O)c3cc(-c4ccc5ccnc(N)c5c4)ccc32)C1` (centres unmarked) [Compound 312c, 2-(2-((5-(1-aminoisoquinolin-7-yl)-1-(1-(ethylsulfonyl)pyrrolidin-3-yl)-1H-indazol-3-yl)methoxy)phenyl)acetic acid], the IC50 was < 1 µM. For `Cc1ccc(CC(=O)O)c(OCc2c3cc(-c4cccc5c(N)nccc45)ccc3nn2C2CCC2)c1` [Compound 18c, 2-(2-((5-(1-aminoisoquinolin-5-yl)-2-cyclobutyl-2H-indazol-3-yl)methoxy)-4-methylphenyl)acetic acid], the IC50 was 1 to 10 µM. `COc1ccc(CC(=O)O)c(O[C@@H]2CCc3ccc(-c4ccc5ccnc(N)c5c4)cc32)c1` [Compound 419c, (R)-2-(2-((6-(1-aminoisoquinolin-7-yl)-2,3-dihydro-1H-inden-1-yl)oxy)-4-methoxyphenyl)acetic acid] was tested, and the IC50 was < 1 µM. `COc1ccc(CC(=O)O)c(OCc2c3cc(-c4ccc5ccnc(N)c5c4)ccc3nn2C2CCCCC2)c1` [Compound 16c, 2-(2-((5-(1-aminoisoquinolin-7-yl)-2-cyclohexyl-2H-indazol-3-yl)methoxy)-4-methoxyphenyl)acetic acid] showed an IC50 of 1 to 10 µM. With `COc1cccc(CC(=O)O)c1OCc1coc2c(OC)cc(-c3ccc4ccnc(N)c4c3)cc12` [Compound 267g, 2-(2-((5-(1-aminoisoquinolin-7-yl)-7-methoxybenzofuran-3-yl)methoxy)-3-methoxyphenyl)acetic acid] the IC50 was > 10 µM. `Nc1nccc2ccc(-c3ccc4c(c3)c(COc3ccccc3CC(=O)O)nn4C3CCCCO3)cc12` (centres unmarked) [Compound 93b, 2-(2-((5-(1-aminoisoquinolin-7-yl)-1-(tetrahydro-2H-pyran-2-yl)-1H-indazol-3-yl)methoxy)phenyl)acetic acid] was tested, and the IC50 was < 1 µM. For `Nc1nccc2ccc(-c3ccc4c(c3)[C@H](Oc3cc(C(F)(F)F)ccc3CC(=O)O)CC4)cc12` [Compound 427c, (R)-2-(2-((6-(1-aminoisoquinolin-7-yl)-2,3-dihydro-1H-inden-1-yl)oxy)-4-(trifluoromethyl)phenyl)acetic acid], the IC50 was < 1 µM.

From patent US20240239752A1, “BICYCLIC HETEROAROMATIC INHIBITORS OF KLK5” (BioCryst Pharmaceuticals, Inc., priority 2021, published 2024)
